Reference: US9670213B2, “Pteridine ketone derivative and applications thereof as EGFR, BLK, and FLT3 inhibitor” (EAST CHINA UNIVERSITY OF SCIENCE AND TECHNOLOGY, priority 2012, dated 2017)

Assays:
FLT3 = FLT3 (Homo sapiens (Human), UniProt P36888); test: FLT3 kinase activity assay (Caliper); format: biochemical; settings: read-out: Inhibitory activity on kinase (IC50, nM) FLT3
Procedure: (§1) Preparation of 1× kinase matrix buffer and stop buffer.
(§2) Preparation of compound solution. The compound was dissolved in 100% DMSO to a concentration, which was 50 times of the final highest inhibiting-concentration. 100 μL of the compound solution as said above was transferred into wells of 96-well plate. The above compound solution was sequentially diluted to the final desired concentration. In two blank wells of same 96-well plate, 100 μL of 100% DMSO was added as no-compound and no-kinase control, and this plate was used as the original plate.
(§3) Preparation of intermediate plate. 10 μL of compound solution was transferred from the original plate to another 96-well plate as the intermediate plate; 90 μL of 1× kinase buffer was added into each well of the intermediate plate, and the intermediate plate was shaken for 10 min.
(§4) Preparation of assay plate. 5 μL of solution from each well of intermediate plate was added into a 384-well plate, and repeated controls were set.
(§5) Kinase reaction. 2.5× kinase solution and 2.5× peptide solution were prepared. 2.5× kinase solution was transferred into assay plate. Assay plate comprised 5 μL of the compound solution in 10% DMSO. 10 μL of 2.5× kinase solution was added in each well of 384-well assay plate. […] 2.5× peptide solution was added into each well. After incubated at 28° C. for an appropriate time, 25 μL of stop buffer was added to quench the reaction. Experimental data were collected in Caliper. Curve was fitted.

BLK = BLK (Homo sapiens (Human), UniProt P51451); test: BLK kinase activity assay (Caliper); format: biochemical; settings: read-out: Inhibitory activity on kinase (IC50, nM) BLK
Procedure: as §1, §2, §3, §4, §5

BRAF = BRAF (Homo sapiens (Human), UniProt P15056); test: Kinase selectivity analysis (BRAF analysis); format: biochemical; settings: for inhibition at 1 µM: read-out: % inhibition (1 μM), 1 μM; for inhibition at 10 µM: read-out: % inhibition (10 μM), 10 μM
Procedure: Kinase selectivity analysis: kinase selectivity experiment was performed by Shanghai ChemPartner using Caliper assay screening platform. All of kinases and other materials were purchased from commercial companies.
1. Preparation of 1× Kinase Buffer: 50 mM HEPES, pH 7.5, 10 mM MgCl2, 1 mM EGTA, 0.01% BRIJ-35.
2. Preparation of compounds for BRAF kinase test: 1) serial dilution of compound and preparation of stock solution plate. The compound was diluted in 100% DMSO to a concentration, which was 100 times of the highest concentration used in reaction, and 100 μL of the compound solution as said above was transferred into wells of 96-well plate. 30 μL of compound solution was transferred into 60 μL of 100% DMSO in the adjacent well, and the above operation was repeated for sequentially diluting the compound. 100 μL of 100% DMSO was added into two blank wells as no-compound and no-enzyme control, the plate was marked as stock solution plate. 2) Preparation of temporary plate. 4 μL of compound solution from the stock solution plate was transferred to another 96-well plate, 96 μL of 1× kinase buffer was added into each well, and the temporary plate was placed on a shaker and shaken for 10 mins for uniformly mixing the compound. 3) Preparation of assay plate. 2.5 μL of solution from each well of the 96-well temporary plate was added into a 384-well plate, and the experiment was independently repeated.
3. Kinase BRAF reaction: 1) Preparation of 2× kinase solution. BRAF solution was prepared in 1× kinase buffer, the concentration of which was 2 times of the final concentration in the test. 5 μL of kinase solution was added into each well of the assay plate (except for control well, into which 5 μL of 1× kinase buffer was added), and the assay plate was shaken. 2) Preparation of 4× substrate solution. Fluorescein-MAP2K1, ATP substrate solution was prepared in 1× kinase buffer, the concentration of which was 4 times of the final concentration in the test. 2.5 μL of substrate solution was added into each well of the assay plate to start the reaction, and the assay plate was shaken. 3) The kinase reaction was conducted by incubating at room temperature for 1 hour.
4. Kinase assay. Test solution was prepared in antibody dilution buffer, the concentration of which was 2 times of the following final concentration: antibody 2 nM, EDTA […]. 10 μL of test solution was added into each well of the assay plate to quench the assay. […]
5. Read data: the data was read on Envision (excitation at 340 nm, emission at 520 nm, […]).
6. […] The rate of RFU […] was calculated and converted into inhibition rate % Inhibition rate %=(maximum−rate of sample)/(maximum−minimum)*100, wherein “maximum” represents DMSO control rate, and “minimum” represents the no-enzyme control rate. […]

[1] = tested on: HCC827 (non-small cell lung cancer cells, EGFR del E746-A750); test: Cell proliferation and growth inhibition analysis; format: cell-based; settings: Homo sapiens, 72 hours, read-out: Inhibitory activity on cell proliferation (IC50, μM) HCC827
Procedure: Cell proliferation was evaluated by MTS assay. Cells were exposed to the process conditions for 72 hours, and the number of cells for each cell line used in the experiment was adjusted according to the absorbance value (absorbance value at 490 nm was 1.3-2.2). 6 concentration gradients (0.1 nM-10 μM) were set for the compounds to be tested, with six parallel controls for each concentration.
H1975, HCC827, A549, BT474, MCF-7, SK-BR-3 cells were cultured in the corresponding medium. Upon recovery, the cells were passaged at least two times and then used in experiments. Cells in Log phase were trypsinized and resuspended in the medium. H1975 (1000 cells per well), BT474 (1500 cells per well), MCF-7 (1500 cells per well), HCC827 (2000 cells per well), SK-BR-3 (2000 cells per well), A549 (2000 cells per well) were seeded into 96-well plates, the volume was 100 μL, and 6 rows and 7 columns were set. The plate was placed in an incubator at 37° C. of 5% carbon dioxide overnight. Compounds were dissolved in DMSO to obtain the concentration of […], and then gradually diluted to obtain the concentration of compound as […], 0.1 μM, 0.01 μM, 0.001 μM, 0.0001 μM. 2 μL of compound solution was added into 998 μL of medium, and the resulting mixture was thoroughly mixed. 100 μL of mixture was added into 96-well plate. […] After the cells were cultured for 68 hours, 20 μL of MTT (5 mg/mL) was added. After 4 hours, the supernatant was discarded and 150 μL of DMSO was added. The resulting system was shaken for 10 minutes, and the plate was read with Synergy HT (Bio TeK) (OD490). The data was calculated by GraphPad Prism version 4.0, and IC50 was obtained by non-linear regression model using dose-response curve.

EGFR-L858R = EGFR-L858R (Homo sapiens (Human), UniProt P00533, L858R); test: In vitro EGFR kinase activity assay (Z'-Lyte); format: biochemical; settings: read-out: Inhibitory activity on EGFR kinase (IC50, nM) L858R;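 note: Cell-free kinase reaction with peptide substrate and ATP, 1.5 h at room temperature, then development step cleaving non-phosphorylated peptide, 10-point dilution series 0.051–1000 nM, phosphopeptide as 100% phosphorylation control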
Procedure: (§6) Inhibitory effects in vitro of the compounds provided in the present invention on EGFR kinase activity was tested as follows:
(§7) 10 concentration gradients, from 5.1×10^−11 mol/L to 1.0×10^−6 mol/L, were set for all of the compounds to be tested.
(§8) 10 μL of kinase reaction system comprised 2.5 μL of compound solution, 5 μL of Kinase/peptide mixture, and 2.5 μL of ATP solution. 5 μL of phosphopeptide solution was used in place of kinase/peptide mixture as 100% phosphorylation control. […] After thoroughly mixing the solution within the plate, the plate was incubated at room temperature for 1.5 hours. 5 μL of DevelopmentSolution was added into each well, and then the plate was incubated at room temperature for another 1 hour, and non-phosphorylated peptide was cleaved within this period. Finally, the reaction was quenched by adding 5 μL of Stop Reagent. The Plate was measured with EnVision Multilabel Reader (Perkin Elmer). Experimental data were calculated by using GraphPad Prism version 4.0. Each experiment was repeated more than three times.

wild-type EGFR = wild-type EGFR (Homo sapiens (Human), UniProt P00533); test: In vitro EGFR kinase activity assay (Z'-Lyte); format: biochemical; settings: EGFR WT; read-out: Inhibitory activity on EGFR kinase (IC50, nM) WT;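 note: Ten-point dose series from 5.1×10^−11 to 1.0×10^−6 mol/L, kinase reaction 1.5 h at room temperature, then 1 h development cleaving unphosphorylated peptide, phosphopeptide as 100% phosphorylation control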
Chain of wild-type EGFR (P00533 25-1210): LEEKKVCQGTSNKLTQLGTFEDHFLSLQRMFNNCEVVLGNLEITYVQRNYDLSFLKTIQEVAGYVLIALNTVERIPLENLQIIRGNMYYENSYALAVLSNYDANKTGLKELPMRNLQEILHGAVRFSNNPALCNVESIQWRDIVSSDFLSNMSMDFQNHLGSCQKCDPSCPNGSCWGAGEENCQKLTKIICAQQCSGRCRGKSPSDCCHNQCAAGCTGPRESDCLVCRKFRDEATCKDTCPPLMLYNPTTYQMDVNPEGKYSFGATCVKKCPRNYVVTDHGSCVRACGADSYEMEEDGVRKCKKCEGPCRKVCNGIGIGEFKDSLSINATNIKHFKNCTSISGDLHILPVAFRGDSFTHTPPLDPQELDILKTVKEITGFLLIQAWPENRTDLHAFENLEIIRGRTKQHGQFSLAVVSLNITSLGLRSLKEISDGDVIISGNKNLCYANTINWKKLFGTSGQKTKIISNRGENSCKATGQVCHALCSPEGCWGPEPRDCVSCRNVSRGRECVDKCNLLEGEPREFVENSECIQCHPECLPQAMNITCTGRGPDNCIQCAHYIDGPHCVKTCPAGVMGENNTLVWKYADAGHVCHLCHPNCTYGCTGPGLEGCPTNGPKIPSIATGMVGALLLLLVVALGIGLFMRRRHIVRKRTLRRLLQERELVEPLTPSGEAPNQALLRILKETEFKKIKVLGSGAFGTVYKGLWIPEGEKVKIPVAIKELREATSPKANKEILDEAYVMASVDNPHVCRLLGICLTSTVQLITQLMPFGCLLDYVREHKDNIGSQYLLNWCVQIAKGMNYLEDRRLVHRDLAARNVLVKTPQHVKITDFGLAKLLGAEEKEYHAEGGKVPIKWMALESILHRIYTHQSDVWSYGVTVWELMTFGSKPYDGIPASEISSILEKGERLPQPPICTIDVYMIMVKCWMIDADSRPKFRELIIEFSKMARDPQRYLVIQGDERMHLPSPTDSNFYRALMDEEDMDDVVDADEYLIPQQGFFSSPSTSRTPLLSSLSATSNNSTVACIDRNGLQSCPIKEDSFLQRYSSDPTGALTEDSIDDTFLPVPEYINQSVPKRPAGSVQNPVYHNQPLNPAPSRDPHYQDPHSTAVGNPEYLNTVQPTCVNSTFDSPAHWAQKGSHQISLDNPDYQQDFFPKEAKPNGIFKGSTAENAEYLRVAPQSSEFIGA
Procedure: as §6, §7, §8

Chain of BRAF (P15056 whole entry, species assumed): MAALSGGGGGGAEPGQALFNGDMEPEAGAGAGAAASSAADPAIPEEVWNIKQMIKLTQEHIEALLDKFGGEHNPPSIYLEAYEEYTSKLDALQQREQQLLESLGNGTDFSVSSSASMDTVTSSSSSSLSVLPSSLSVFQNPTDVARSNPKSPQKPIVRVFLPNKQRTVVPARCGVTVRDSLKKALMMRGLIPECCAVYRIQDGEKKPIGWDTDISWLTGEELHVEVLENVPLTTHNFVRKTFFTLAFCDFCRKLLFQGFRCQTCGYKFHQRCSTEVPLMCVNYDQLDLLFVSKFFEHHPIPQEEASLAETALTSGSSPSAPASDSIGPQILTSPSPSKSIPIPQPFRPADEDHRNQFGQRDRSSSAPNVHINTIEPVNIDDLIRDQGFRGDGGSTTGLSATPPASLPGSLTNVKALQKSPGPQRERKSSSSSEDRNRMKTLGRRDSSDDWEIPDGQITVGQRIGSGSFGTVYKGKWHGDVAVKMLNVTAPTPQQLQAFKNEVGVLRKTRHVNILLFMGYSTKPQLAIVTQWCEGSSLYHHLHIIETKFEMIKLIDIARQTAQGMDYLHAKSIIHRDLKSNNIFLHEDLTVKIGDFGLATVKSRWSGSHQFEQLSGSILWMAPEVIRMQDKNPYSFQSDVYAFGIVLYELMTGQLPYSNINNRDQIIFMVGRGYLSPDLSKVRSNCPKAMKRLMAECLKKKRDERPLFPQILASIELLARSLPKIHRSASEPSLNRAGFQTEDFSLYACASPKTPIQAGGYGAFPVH
Chain of EGFR-L858R (P00533 25-1210 L858R): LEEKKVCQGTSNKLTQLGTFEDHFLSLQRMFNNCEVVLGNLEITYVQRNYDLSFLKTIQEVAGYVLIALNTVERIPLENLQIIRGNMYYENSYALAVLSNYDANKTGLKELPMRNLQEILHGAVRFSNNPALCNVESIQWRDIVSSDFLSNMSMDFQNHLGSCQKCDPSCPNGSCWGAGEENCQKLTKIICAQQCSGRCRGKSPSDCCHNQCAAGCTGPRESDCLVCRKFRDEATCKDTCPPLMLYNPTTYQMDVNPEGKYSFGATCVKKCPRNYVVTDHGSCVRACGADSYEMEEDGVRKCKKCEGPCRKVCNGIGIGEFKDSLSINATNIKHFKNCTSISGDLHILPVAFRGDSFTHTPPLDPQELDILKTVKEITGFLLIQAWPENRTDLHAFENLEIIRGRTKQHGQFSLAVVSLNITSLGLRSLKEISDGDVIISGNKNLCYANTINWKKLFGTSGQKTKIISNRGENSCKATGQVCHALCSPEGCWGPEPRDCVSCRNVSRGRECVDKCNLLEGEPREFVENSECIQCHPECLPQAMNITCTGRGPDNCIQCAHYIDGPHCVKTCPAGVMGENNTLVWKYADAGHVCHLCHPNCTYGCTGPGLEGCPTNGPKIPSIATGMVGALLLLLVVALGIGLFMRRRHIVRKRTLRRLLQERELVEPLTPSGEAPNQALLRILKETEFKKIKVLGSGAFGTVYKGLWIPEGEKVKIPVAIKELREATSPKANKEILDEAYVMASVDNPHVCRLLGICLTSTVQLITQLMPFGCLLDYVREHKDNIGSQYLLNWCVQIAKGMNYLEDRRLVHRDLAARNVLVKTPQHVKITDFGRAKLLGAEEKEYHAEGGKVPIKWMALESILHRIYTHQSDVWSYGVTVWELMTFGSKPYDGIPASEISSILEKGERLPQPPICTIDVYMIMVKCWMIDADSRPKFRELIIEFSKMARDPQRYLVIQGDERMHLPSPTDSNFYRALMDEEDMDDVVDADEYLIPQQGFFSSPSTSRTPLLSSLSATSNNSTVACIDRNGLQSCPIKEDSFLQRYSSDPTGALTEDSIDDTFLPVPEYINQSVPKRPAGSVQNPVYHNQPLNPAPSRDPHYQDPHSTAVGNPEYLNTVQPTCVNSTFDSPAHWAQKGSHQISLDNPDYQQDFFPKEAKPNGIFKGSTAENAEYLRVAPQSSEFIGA
Chain of BLK (P51451 whole entry): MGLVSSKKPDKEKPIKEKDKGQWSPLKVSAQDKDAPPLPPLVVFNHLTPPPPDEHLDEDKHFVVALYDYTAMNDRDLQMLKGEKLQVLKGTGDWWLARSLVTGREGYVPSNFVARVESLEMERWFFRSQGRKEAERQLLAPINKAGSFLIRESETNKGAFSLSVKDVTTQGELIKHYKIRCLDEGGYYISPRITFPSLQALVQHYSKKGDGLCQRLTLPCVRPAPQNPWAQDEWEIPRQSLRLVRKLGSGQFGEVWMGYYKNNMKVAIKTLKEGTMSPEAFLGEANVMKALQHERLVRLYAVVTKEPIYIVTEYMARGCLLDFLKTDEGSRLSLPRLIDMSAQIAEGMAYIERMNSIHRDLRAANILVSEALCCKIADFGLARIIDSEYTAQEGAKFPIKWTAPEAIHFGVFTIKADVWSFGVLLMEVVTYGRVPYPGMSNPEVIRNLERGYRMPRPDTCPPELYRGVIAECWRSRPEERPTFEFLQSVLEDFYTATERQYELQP
Chain of FLT3 (P36888 27-993): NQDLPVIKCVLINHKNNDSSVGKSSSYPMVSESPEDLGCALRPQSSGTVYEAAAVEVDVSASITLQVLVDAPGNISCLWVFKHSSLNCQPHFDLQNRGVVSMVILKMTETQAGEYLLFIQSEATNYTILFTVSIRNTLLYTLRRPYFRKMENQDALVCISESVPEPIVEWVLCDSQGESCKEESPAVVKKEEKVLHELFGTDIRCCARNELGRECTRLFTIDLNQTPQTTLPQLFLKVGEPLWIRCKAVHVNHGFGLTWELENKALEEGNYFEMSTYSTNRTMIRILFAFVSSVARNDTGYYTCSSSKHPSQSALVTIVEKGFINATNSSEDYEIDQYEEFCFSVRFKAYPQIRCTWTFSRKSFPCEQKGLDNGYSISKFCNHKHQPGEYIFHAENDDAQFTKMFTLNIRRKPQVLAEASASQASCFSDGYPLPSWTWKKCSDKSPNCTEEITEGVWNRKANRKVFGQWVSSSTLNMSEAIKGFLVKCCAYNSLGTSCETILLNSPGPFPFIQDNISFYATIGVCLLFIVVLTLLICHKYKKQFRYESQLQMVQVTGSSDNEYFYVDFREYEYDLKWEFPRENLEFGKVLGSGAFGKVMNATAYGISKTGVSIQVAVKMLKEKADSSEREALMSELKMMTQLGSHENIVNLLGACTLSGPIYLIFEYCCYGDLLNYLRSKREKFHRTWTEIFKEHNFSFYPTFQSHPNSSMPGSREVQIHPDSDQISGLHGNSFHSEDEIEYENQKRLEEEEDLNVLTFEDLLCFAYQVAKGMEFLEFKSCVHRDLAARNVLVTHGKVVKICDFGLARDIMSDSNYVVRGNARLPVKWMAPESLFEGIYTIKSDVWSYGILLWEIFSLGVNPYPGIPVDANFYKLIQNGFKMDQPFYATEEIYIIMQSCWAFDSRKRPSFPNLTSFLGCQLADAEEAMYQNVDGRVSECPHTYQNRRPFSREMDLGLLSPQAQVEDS

| Compound | IC50 (FLT3) | IC50 (BLK) | inhibition at 1 µM (BRAF) | inhibition at 10 µM (BRAF) | IC50 [1] | IC50 (EGFR-L858R) | IC50 (wild-type EGFR) |
| --- | --- | --- | --- | --- | --- | --- | --- |
| C=CC(=O)Nc1cccc(-n2c(=O)cnc3cnc(Nc4ccc(N5CCN(C)CC5)cc4)nc32)c1 [Compound 020, N-(3-(2-(4-(4-methyl-1-piperazinyl)-phenylamino)-7-oxo-8(7H)-pteridin-yl)phenyl) acrylamide] | 322 nM | < 14 nM | -7% | 21% | 0.002 µM | 1.2 nM | 1.47 nM |
| C=CC(=O)Nc1cccc(-n2c(=O)cnc3cnc(Nc4ccc(N5CCN(C)CC5)cc4OC)nc32)c1 [Compound 032, N-(3-(2-(2-methoxy-4-(4-methyl-1-piperazinyl)-phenylamino)-7-oxo-8(7H)-pteridin-yl)phenyl)acrylamide] | 1170 nM | 463 nM | 0.35% | -5.2% | 0.004 µM | 2.36 nM | 3.67 nM |
